This passage reports IC50 results from US7071217B2, “Substituted oxindole derivatives as tyrosine kinase inhibitors” (SmithKline Beecham Corporation, priority 2000, dated 2006).

Structures are written as SMILES. Some results are limits rather than exact numbers.

This test has as its target T1, TrkA (Homo sapiens, UniProt P04629).
T1 construct: The enzyme is a GST-fusion of the intracellular domain expressed in SF9 cells; purchased Regeneron; host or cells: SF9 cells
Description: TrkA tyrosine kinase substrate phosphorylation assay (Src peptide, 33P-ATP, p81 filter plates). It is filed as biochemical. The conditions noted are these: GST-fusion of TrkA intracellular domain; 20-40 nM TrkA, 30 uM ATP, 50 uM Src peptide, RT 120 min. The protocol:
The compounds of the present invention have valuable pharmacologic properties. Different compounds from this class are particularly effective at inhibiting the trkA kinase enzyme at concentrations which range from 0.0001 to 1 μM and additionally show specificity relative to other kinases. Substrate phosphorylation assays were carried out as follows:
Screening format: Tyrosine kinase activity is being measured using a synthetic peptide substrate. The enzyme is a GST-fusion of the intracellular domain expressed in SF9 cells. The enzyme is expressed and purified by Regeneron. The enzyme is preincubated with cold ATP and Mg to allow autophosphorylation prior to running the screen. This increases the initial rate of catalysis approximately 3 fold. The assay is performed in 96 well microtitre plates, and reaction products are detected following filtration through millipore p81 phosphocellulose plates. Assay Conditions

T1 sequence (P04629 440-796 limits assumed, species assumed): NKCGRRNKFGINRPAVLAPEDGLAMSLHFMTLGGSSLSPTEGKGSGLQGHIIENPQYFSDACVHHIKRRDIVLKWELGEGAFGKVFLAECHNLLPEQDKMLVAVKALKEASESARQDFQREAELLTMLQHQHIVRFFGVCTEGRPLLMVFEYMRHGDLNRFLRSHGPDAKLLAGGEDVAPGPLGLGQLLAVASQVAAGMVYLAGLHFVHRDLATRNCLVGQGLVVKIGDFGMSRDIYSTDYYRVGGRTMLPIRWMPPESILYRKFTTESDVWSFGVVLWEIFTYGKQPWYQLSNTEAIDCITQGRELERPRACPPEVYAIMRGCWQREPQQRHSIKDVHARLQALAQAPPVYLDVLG

`CNS(=O)(=O)Cc1ccc(N/N=C2\C(=O)Nc3cc(C(C)C)c(O)c(Cl)c32)cc1` [Example 1, {4-[(2Z)-2-(4-chloro-5-hydroxy-6-isopropyl-2-oxo-1,2-dihydro-3H-indol-3-ylidene)hydrazino]phenyl}-N-methylmethanesulfonamide] showed an IC50 below 10 nM.

`CS(=O)(=O)Nc1ccc(N/C=C2\C(=O)Nc3ccccc32)cc1` [Example 2, N-(4-{[(Z)-(2-oxo-1,2-dihydro-3H-indol-3-ylidene)methyl]amino}phenyl)methanesulfonamide] yielded an IC50 below 10 nM.

On to `O=C1Nc2ccccc2/C1=C/Nc1ccc(S(=O)(=O)Nc2ccccn2)cc1` [Example 3, 4-{[(Z)-(2-oxo-1,2-dihydro-3H-indol-3-ylidene)methyl]amino}-N-(2-pyridinyl)benzenesulfonamide], for which the IC50 was in the range of 10 to 100 nM.

`Cc1nnc(NS(=O)(=O)c2ccc(N/C=C3\C(=O)Nc4ccccc43)cc2)s1` [Example 4, N-(5-methyl-1,3,4-thiadiazol-2-yl)-4-{[(Z)-(2-oxo-1,2-dihydro-3H-indol-3-ylidene)methyl]amino}benzenesulfonamide]: the IC50 lay in the range of 10 to 100 nM.

For `NS(=O)(=O)c1cccc(N/C=C2\C(=O)Nc3ccccc32)c1` [Example 5, 3-{[(Z)-(2-oxo-1,2-dihydro-3H-indol-3-ylidene)methyl]amino}benzenesulfonamide], the IC50 was 10 to 100 nM.

The term IC50 denotes the point on the concentration scale where inhibition reaches its midpoint. Lower therefore signals greater potency.
